Experimental data from PubChem BioAssay AID248 (DTP/NCI, 2004).
Toxic doses and inconclusive results are not listed. Cut-off read from the data, not from the text of the source: active = T/C of 150% or more; inactive = T/C below 125%.

System: L1210 leukemia ip in BDF1 mice, survival T/C
Test: NCI In Vivo Anticancer Drug Screen. Data for tumor model L1210 Leukemia (intraperitoneal) in B6D2F1 (BDF1) mice
Details: endpoint: mean survival time, higher = longer survival
Outline: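 Ratio derived from survival: compound-dosed mice over vehicle-dosed mice, all bearing a transplantable tumor.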

[1] = dose: 100.0 mg/kg/injection, schedule: Q04DX003 (ip), vehicle: saline with Tween-80
[2] = dose: 200.0 mg/kg/injection, schedule: Q04DX003 (ip), vehicle: saline with Tween-80
[3] = dose: 400.0 mg/kg/injection, schedule: Q04DX003 (ip), vehicle: saline with Tween-80
[4] = dose: 100.0 mg/kg/injection, schedule: Q01DX001 (ip), vehicle: carboxymethylcellulose (CMC)
[5] = dose: 200.0 mg/kg/injection, schedule: Q01DX001 (ip), vehicle: carboxymethylcellulose (CMC)
[6] = dose: 50.0 mg/kg/injection, schedule: Q01DX009 (ip), vehicle: saline with Tween-80
[7] = dose: 100.0 mg/kg/injection, schedule: Q01DX009 (ip), vehicle: saline with Tween-80
[8] = dose: 200.0 mg/kg/injection, schedule: Q01DX009 (ip), vehicle: saline with Tween-80
[9] = dose: 100.0 mg/kg/injection, schedule: Q04DX002 (ip), vehicle: Klucel (hydroxypropylcellulose) (HPC)
[10] = dose: 200.0 mg/kg/injection, schedule: Q04DX002 (ip), vehicle: Klucel (hydroxypropylcellulose) (HPC)
[11] = dose: 400.0 mg/kg/injection, schedule: Q04DX002 (ip), vehicle: Klucel (hydroxypropylcellulose) (HPC)
[12] = dose: 100.0 mg/kg/injection, schedule: Q01DX009 (ip), vehicle: Klucel (hydroxypropylcellulose) (HPC)
[13] = dose: 200.0 mg/kg/injection, schedule: Q01DX009 (ip), vehicle: Klucel (hydroxypropylcellulose) (HPC)
[14] = dose: 400.0 mg/kg/injection, schedule: Q01DX009 (ip), vehicle: Klucel (hydroxypropylcellulose) (HPC)
[15] = dose: 100.0 mg/kg/injection, schedule: Q04DX003 (ip), vehicle: saline
[16] = dose: 200.0 mg/kg/injection, schedule: Q04DX003 (ip), vehicle: saline
[17] = dose: 400.0 mg/kg/injection, schedule: Q04DX003 (ip), vehicle: saline

Measured: T/C

Cc1cc2c(cc1O)C(C)(C)CCC2(C)C
inactive: [1] 92 % of control | [2] 100 % of control | [3] 97 % of control

COC(=O)Nc1cccc(OC(=O)NC2CCCCC2)c1
inactive: [1] 100 % of control | [2] 100 % of control | [3] 93 % of control

C[C@H]1CCC/C=C/[C@@H]2C[C@H](O)C[C@H]2[C@H](O)/C=C/C(=O)O1
inactive: [4] 105 % of control | dose: 100.0 mg/kg/injection, schedule: Q01DX001 (ip), vehicle: other 92 % of control | dose: 100.0 mg/kg/injection, schedule: Q01DX015 (ip), vehicle: water 96 % of control | [5] 103 % of control | dose: 200.0 mg/kg/injection, schedule: Q01DX001 (ip), vehicle: other 95 % of control | dose: 200.0 mg/kg/injection, schedule: Q01DX015 (ip), vehicle: water 103 % of control | dose: 400.0 mg/kg/injection, schedule: Q01DX001 (ip), vehicle: other 93 % of control

CCc1cccc(CC)c1NC(=O)CS
inactive: [1] 94 % of control | [2] 95 % of control

COC(=O)/C(C#N)=N/O
inactive: [6] 102 % of control | [7] 97 % of control | [1] 100 % of control | [8] 94 % of control | [2] 94 % of control

CC12C(=O)OC(=O)C1(C)C1OC2C(Br)C1Br (centres undefined)
inactive: dose: 25.0 mg/kg/injection, schedule: Q01DX009 (ip), vehicle: saline with Tween-80 95 % of control | [6] 97 % of control | [7] 88 % of control

COc1cc2c(cc1OC)C(C=C(c1ccccc1)c1ccccc1)N(C)CC2 (centres undefined)
inactive: dose: 12.5 mg/kg/injection, schedule: Q01DX009 (ip), vehicle: Klucel (hydroxypropylcellulose) (HPC) 94 % of control | dose: 12.5 mg/kg/injection, schedule: Q04DX003 (ip), vehicle: Klucel (hydroxypropylcellulose) (HPC) 95 % of control | dose: 25.0 mg/kg/injection, schedule: Q01DX009 (ip), vehicle: Klucel (hydroxypropylcellulose) (HPC) 103 % of control | dose: 25.0 mg/kg/injection, schedule: Q04DX003 (ip), vehicle: Klucel (hydroxypropylcellulose) (HPC) 101 % of control | dose: 50.0 mg/kg/injection, schedule: Q01DX009 (ip), vehicle: Klucel (hydroxypropylcellulose) (HPC) 96 % of control | dose: 50.0 mg/kg/injection, schedule: Q04DX003 (ip), vehicle: Klucel (hydroxypropylcellulose) (HPC) 96 % of control

Cc1ccc2ccccc2c1OC(C)C(=O)O (centres undefined)
inactive: [6] 108 % of control | [7] 95 % of control | dose: 100.0 mg/kg/injection, schedule: Q04DX003 (ip), vehicle: alcohol 95 % of control | [8] 113 % of control | dose: 200.0 mg/kg/injection, schedule: Q04DX003 (ip), vehicle: alcohol 93 % of control

c1ccc([Si](c2ccccc2)(c2ccccc2)c2ccccc2)cc1
inactive: [1] 90 % of control | [2] 90 % of control | [3] 88 % of control

N#CCCN(C(=O)Nc1ccc(Cl)c(Cl)c1)C1CCCCC1
inactive: [9] 107 % of control | [10] 100 % of control | [11] 111 % of control

COc1cc2c(c(-c3c(O)c(OC)cc4c3CC[n+]3cc5c(OC)c(OC)ccc5cc3-4)c1O)CC[n+]1cc3c(OC)c(OC)ccc3cc1-2
inactive: dose: 50.0 mg/kg/injection, schedule: Q04DX002 (ip), vehicle: Klucel (hydroxypropylcellulose) (HPC) 100 % of control | [9] 108 % of control | [10] 100 % of control

C[Si](C)(C)OCCCCCCCl
inactive: dose: 50.0 mg/kg/injection, schedule: Q01DX001 (ip), vehicle: carboxymethylcellulose (CMC) 108 % of control | [4] 101 % of control | [5] 95 % of control | dose: 400.0 mg/kg/injection, schedule: Q01DX001 (ip), vehicle: carboxymethylcellulose (CMC) 103 % of control

Cc1ccc(S(=O)(=O)N/N=C\c2cc(Cl)ccc2O)cc1
inactive: [12] 105 % of control | dose: 100.0 mg/kg/injection, schedule: Q04DX003 (ip), vehicle: Klucel (hydroxypropylcellulose) (HPC) 100 % of control | [13] 100 % of control | dose: 200.0 mg/kg/injection, schedule: Q04DX003 (ip), vehicle: Klucel (hydroxypropylcellulose) (HPC) 103 % of control | [14] 103 % of control | dose: 400.0 mg/kg/injection, schedule: Q04DX003 (ip), vehicle: Klucel (hydroxypropylcellulose) (HPC) 100 % of control

NC(N)=NCCCC(NC(=O)c1ccccc1)C(=O)Nc1ccc([N+](=O)[O-])cc1 (centres undefined)
inactive: [7] 89 % of control | [15] 104 % of control | [8] 95 % of control | [16] 100 % of control | dose: 400.0 mg/kg/injection, schedule: Q01DX009 (ip), vehicle: saline with Tween-80 110 % of control | [17] 98 % of control

COc1cc([N+](=O)[O-])ccc1NC(=O)c1c(Br)c(Br)c(Br)c(Br)c1C(=O)O
inactive: [12] 101 % of control | [13] 106 % of control | [14] 106 % of control

CN(C(=O)Nc1cccc(C(F)(F)F)c1)c1ccccc1
inactive: [12] 98 % of control | [13] 96 % of control | [14] 101 % of control

CN(C)Cc1ccccc1COC(=O)c1ccccc1
inactive: [9] 119 % of control | [10] 105 % of control | [11] 97 % of control

CN(C)C=NC1CCC(CC2CCCCC2)CC1 (centres undefined)
inactive: dose: 75.0 mg/kg/injection, schedule: Q04DX003 (ip), vehicle: Klucel (hydroxypropylcellulose) (HPC) 92 % of control | dose: 100.0 mg/kg/injection, schedule: Q01DX001 (ip), vehicle: Klucel (hydroxypropylcellulose) (HPC) 96 % of control | dose: 150.0 mg/kg/injection, schedule: Q04DX003 (ip), vehicle: Klucel (hydroxypropylcellulose) (HPC) 100 % of control | dose: 200.0 mg/kg/injection, schedule: Q01DX001 (ip), vehicle: Klucel (hydroxypropylcellulose) (HPC) 95 % of control | dose: 300.0 mg/kg/injection, schedule: Q04DX003 (ip), vehicle: Klucel (hydroxypropylcellulose) (HPC) 97 % of control

O=C1CCC(OC(=O)c2ccccc2)CCN1 (centres undefined)
inactive: dose: 100.0 mg/kg/injection, schedule: Q01DX001 (ip), vehicle: acetone 102 % of control | dose: 200.0 mg/kg/injection, schedule: Q01DX001 (ip), vehicle: acetone 96 % of control | dose: 400.0 mg/kg/injection, schedule: Q01DX001 (ip), vehicle: acetone 94 % of control

COC(=O)C(=NO)C(=O)OC
inactive: dose: 100.0 mg/kg/injection, schedule: Q01DX009 (ip), vehicle: saline 98 % of control | [15] 93 % of control | dose: 200.0 mg/kg/injection, schedule: Q01DX009 (ip), vehicle: saline 106 % of control | [16] 95 % of control | dose: 400.0 mg/kg/injection, schedule: Q01DX009 (ip), vehicle: saline 106 % of control | [17] 96 % of control

[N-]=[N+]=NCC(=O)NCc1cnccn1
inactive: dose: 12.5 mg/kg/injection, schedule: Q01DX009 (ip), vehicle: saline 114 % of control | dose: 25.0 mg/kg/injection, schedule: Q01DX009 (ip), vehicle: saline 105 % of control | dose: 50.0 mg/kg/injection, schedule: Q01DX009 (ip), vehicle: saline 112 % of control | [15] 102 % of control | [16] 96 % of control | [17] 96 % of control

CN1CCN(C(=S)[S-])CC1.CN1CCN(C(=S)[S-])CC1.[Zn]
inactive: dose: 2.5 mg/kg/injection, schedule: Q01DX009 (ip), vehicle: acetone 96 % of control | dose: 5.0 mg/kg/injection, schedule: Q01DX009 (ip), vehicle: acetone 96 % of control | dose: 5.0 mg/kg/injection, schedule: Q04DX003 (ip), vehicle: acetone 100 % of control | dose: 10.0 mg/kg/injection, schedule: Q01DX001 (ip), vehicle: saline 91 % of control | dose: 10.0 mg/kg/injection, schedule: Q01DX009 (ip), vehicle: acetone 108 % of control | dose: 10.0 mg/kg/injection, schedule: Q04DX003 (ip), vehicle: acetone 92 % of control | dose: 20.0 mg/kg/injection, schedule: Q01DX001 (ip), vehicle: saline 91 % of control | dose: 20.0 mg/kg/injection, schedule: Q04DX003 (ip), vehicle: acetone 92 % of control

Oc1ccc(/C=N/Nc2nc3ccccc3s2)c(O)c1
inactive: dose: 222.0 mg/kg/injection, schedule: Q01DX Z (ip), vehicle: methylcellulose (MC) 88 % of control | dose: 333.0 mg/kg/injection, schedule: Q01DX Z (ip), vehicle: methylcellulose (MC) 91 % of control | dose: 500.0 mg/kg/injection, schedule: Q01DX Z (ip), vehicle: methylcellulose (MC) 94 % of control
